# According to US6495588B2, “Scytonemin and methods of using thereof” (The Regents of the University of California, priority 2000, dated 2002):
# Read-outs that look alike come from different tables or passages of the source.
# Key:
# [1] = test system: PMA-induced mouse ear edema; assay: PMA-induced mouse ear edema assay; assay type: in vivo; details: topical application
# Experimental: The efficacy of a scytoneman compound as an anti-inflammatory agent may be established by the following assay. The scytoneman compound is topically applied in acetone to the inside pinnae of the ears of mice in a solution comprising an irritant such as the edema-causing irritant, Phorbol 12-myristate 13-acetate (PMA). Specifically, 2 μg/ear of PMA alone or in combination with 50 μg/ear of the test compound, scytonemin, was applied to the left ears (5 mice per treatment group) and acetone was applied to all right ears. After 3 hours, 20 minutes incubation, the mice were sacrificed, the ears removed and bores taken and weighed. Edema was measured by subtracting the weight of the right ear (acetone control) from the weight of the left ear (treated). Results were recorded as % decrease (inhibition) or % increase (potentiation) in edema relative to the PMA control group edema.
# [2] = biological target: T1, GST-PLK1 (Homo sapiens, UniProt P53350); assay: GST-Plk kinase activity kinetic assay (phosphorylation of GST-cdc25C); assay type: biochemical; details: for reduction of GST-PLK1 activity: preincubation 0-45 minutes; for Ki: 10-25 μM ATP, 2, 4, 6 μM SCY
# T1 construct: made in house
# Experimental: GST-PLK1, and GST-cdc25C were synthesized as described in Roshak et al. (2000), which is herein incorporated by reference. GST-PLK1 and GST-cdc25C were purified to 20% and 60% purity as determined by SDS-PAGE analysis and Coomassie Blue staining. The remaining impurities were determined to be free GST.
# Kinase reactions comprised 350 nM GST-cdc25C, 0.5 μCi [^33P]-γATP (NEN, Cambridge, Mass.), 10 μM unlabelled ATP (Sigma, St. Louis, Mo.), 20 nM GST-PLK1 in kinase reaction buffer comprising 20 mM HEPES (pH 7.4), 50 mM KCl, 10 mM MgCl2, 1 mM EGTA, 0.5 mM DTT. Enzyme and substrates were diluted individually in kinase buffer and the PLK1 solution was pre-activated by incubating at 37° C. for 1 hour prior to its addition to the assay as described in Roshak et al. (2000).
# 50 μl reactions were conducted in 96 well polypropylene plates. First, 1 nM to 10 μM SCY dissolved in 100% DMSO was added, followed by the addition of enzyme and substrate to give a final concentration of 4% DMSO. The reactions were initiated by the addition of ATP. The reactions progressed for 60 minutes at 37° C., and were then stopped with 25 mM EDTA and 1 mM unlabeled ATP. The samples were transferred to 96 well 0.45 μm millipore filtration plates (Millipore, Bedford, Mass.), the proteins were precipitated with a 10% TCA, 5% sodium pyrophosphate solution (TCA-NaPP), and the plates were filtered using a Millipore microplate filtration unit (Millipore, Bedford, Mass.). The plates were washed twice with the TCA-NaPP solution, twice with 75 mM phosphoric acid, and twice with PBS. After drying at room temperature, scintillation fluid was added to the plate, and [^33P]-γATP incorporation was measured on a Packard Top-Count.
# Analysis by autoradiography was performed as described in Roshak et al. (2000). Briefly, GST-PLK1 (20 nM/assay), […], 1 μCi [^32P]-γATP, and 350 nM GST-cdc25C were incubated in microcentrifuge tubes (50 μl/assay) for 60 minutes at 37° C. in the presence of 1 to 10 μM SCY and 10 μM hymenialdisine. The reactions were terminated with 25 mM EDTA, separated by SDS-PAGE and GST-cdc25C phosphorylation was visualized using Imagequest (Molecular Dynamics, Sunnyvale, Calif.). 10 μM hymenialdisine served as a positive control for each assay described above.
# To determine whether SCY was acting as and ATP analogue, ATP competition assays were conducted as described above in the presence of increasing concentrations, 10, 15, 20, and 25 μM, of unlabeled ATP and three concentrations of SCY, 2, 4, and 6 μM SCY. The results were plotted using the Grafit statistical analysis program.
# To ascertain if inhibition of GST-PLK1, activity by SCY is time dependent, 3 μM and 10 μM SCY were pre-incubated with both enzyme and substrate for 0, 15, 30, and 45 minutes at room temperature. At the end of the pre-incubation period, ATP was added to initiate the activity assay. […] GST-PLK1, activity was reduced by about 58% and about 93% after preincubation with 3 μM and 10 μM SCY, respectively, which is consistent with the levels shown in FIG. 3.
# [3] = test system: RTX-induced mouse ear edema; assay: Resiniferatoxin (RTX)-induced mouse ear edema assay; assay type: in vivo; details: systemic
# Experimental: Various dilutions of test compounds were topically applied in acetone to the inside and outside surfaces of the left ears of mice in a solution comprising 0.1 μg RTX or 250 μg CAP per ear. A control, acetone, was applied to all right ears. After a 30 minute incubation, the mice were sacrificed, the ears removed, and bores taken and weighed.
# For systemic studies, the test compounds were administered by intraperitoneal injection in a vehicle comprising 20% propylene glycol, 80% saline and 3 drops TWEEN-20 30 minutes or 1 hour prior to topical application of RTX or CAP. Control animals were injected with vehicle only. 0.1 μg RTX or 250 μg CAP was applied to the left ears and acetone was applied to the right ears. After 30 minutes of incubation, the mice were scarified, ears removed and bores taken and weighed.
# Edema was measured by subtracting the weight of the right ear (control) from the weight of the left ear. The results were recorded as % decrease (inhibition) or % increase (potentiation) in edema relative to the control group edema.
# T1 sequence (P53350 whole entry): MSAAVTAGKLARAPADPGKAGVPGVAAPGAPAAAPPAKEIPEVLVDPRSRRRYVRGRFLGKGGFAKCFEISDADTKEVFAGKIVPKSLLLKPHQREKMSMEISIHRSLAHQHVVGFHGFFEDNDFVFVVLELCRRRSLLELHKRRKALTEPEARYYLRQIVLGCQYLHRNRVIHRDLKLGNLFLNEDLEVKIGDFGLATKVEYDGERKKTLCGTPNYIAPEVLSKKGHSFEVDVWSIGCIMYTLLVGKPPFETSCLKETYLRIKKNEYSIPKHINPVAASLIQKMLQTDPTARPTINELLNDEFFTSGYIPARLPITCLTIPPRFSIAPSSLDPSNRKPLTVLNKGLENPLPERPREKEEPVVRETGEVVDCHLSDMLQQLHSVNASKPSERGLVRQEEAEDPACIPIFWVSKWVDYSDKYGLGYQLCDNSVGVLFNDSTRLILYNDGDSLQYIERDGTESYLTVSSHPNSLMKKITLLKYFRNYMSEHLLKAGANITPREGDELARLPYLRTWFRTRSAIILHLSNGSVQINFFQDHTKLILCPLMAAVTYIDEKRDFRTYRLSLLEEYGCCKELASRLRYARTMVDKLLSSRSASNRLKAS
substance,measurement,setting,value
scytonemin,ED50 PMA-induced mouse ear edema and tissue myeloperoxidase activity,[1],about 10.9±5 μg per ear
same,reduction of GST-PLK1 activity,[2]; 3 μM SCY,about 58%
same,time dependence of GST-PLK1 inhibition,"[2]; 3 μM and 10 μM, preincubation 0, 15, 30, 45 minutes",not time dependent
same,reduction of GST-PLK1 activity,[2]; 10 μM SCY,about 93%
same,IC50,"[2]; 10 μM unlabelled ATP, 60 minutes at 37° C., IC50±S.E.M., read-out: IC50 for inhibition of GST-PLK1 phosphorylation of GST-cdc25C",1950 ± 70 nM
same,Ki,"[2]; ATP competition, read-out: Ki when fitted as an uncompetitive inhibitor",2300 ± 1900 nM
same,Ki,"[2]; ATP competition, read-out: Ki when fitting the data as a competitive inhibitor",3000 ± 1900 nM
same,mechanism of inhibition of GST-PLK1,"[2]; ATP competition, double-reciprocal plot",mixed inhibitor
same,GST-cdc25C phosphorylation by GST-PLK1 (phosphorimage),[2]; in the presence of 10 μM SCY,virtually no phosphorylated GST-cdc25C detectable
same,inhibition of topical RTX-induced mouse ear edema,[3]; 25 mg/kg,15%
same,inhibition of topical RTX-induced mouse ear edema,[3]; 50 mg/kg,18%
same,inhibition of topical RTX-induced mouse ear edema,[3]; 150 mg/kg,47%
